Earlier results as cited in patent US20170326154A1, “Pre-Operative Composition for Sedation or Analgesia” (priority 2016, published 2017).
Where two headings read alike, the source gives them in different places.

Tests used:
[1] = basic drug, nitrogen atom in the imidazole ring

**Q.** Which results are given for `Cc1ncc2n1-c1ccc(Cl)cc1C(c1ccccc1F)=NC2` [Midazolam, 8-chloro-6-(2′-fluorophenyl)-1-methyl-4H-imidazo[1,5-a][1,4]-benzodiazepine]?
**A.** pKa value [1]: 5.5 and 6.2; adequate sedation within (time) (intranasal administration): 10 to 15 min; adequate sedation within (time) (oral administration): 10 to 20 min
